Usually pKa stands for the negative logarithm of the acid dissociation constant.

A short description of data set [1]: Optical characteristics of pH-sensitive fluorescent probes (absorption, emission, fluorescence quantum yield). The class given is physicochemical. The settings on record: for Φfl (fluorescence quantum yield): fluorescein (Φfl = 0.85) as reference. As to the method: (§1) Optical characteristics of the compounds of the present invention, 3a (H2NBDP-PH), 3b (DiMeNBDP-PH), and 3c (DiEtNBDP-PH), and a compound not having an anilinic amino group as a pH detecting moiety, 3d (PhBDP-PH), as a control compound were measured.

A short description of data set [2]: pH-dependent change of fluorescence quantum yield and pKa by Henderson-Hasselbach equation. The class given is physicochemical. Conditions: for pKa: Determined with Henderson-Hasselbach equation using fluorescence quantum yield; for pH-dependency of fluorescence intensity (fluorescence quantum yield): FIG. 1. How it is done:
as §1

Where [3] appears, read: N-protonated form, pH 1.47 for 3a, pH 2.00 for 3b and 3c.
[4] abbreviates: control compound without anilinic amino group, no form or pH given.

In the case of `CC1=C(CCC(=O)O)C(C)=[N+]2C1=C(c1ccc(N)cc1)c1c(C)c(CCC(=O)O)c(C)n1[B-]2(F)F` [Compound 3a, 1,3,5,7-Tetramethyl-2,6-bis-(2-carboxyethyl)-8-(4-aminophenyl)-4,4-difluoro-4-bora-3a,4a-diaza-s-indacene], in data set [1] (N-nonprotonated form, pH 9.00), the “Stokes' shift” value came out at 17 nm; the ε was determined as 71100 M⁻¹ cm⁻¹; the “λabs, max” value amounted to 519 nm; the “λem, max” value is given as 536 nm. Also, in data set [1] (N-nonprotonated form, pH 9.00), the “Φfl (fluorescence quantum yield)” value was found to be 0.002. In data set [1] (setting [3]), the “Stokes' shift” value was determined as 13 nm; the ε was 72100 M⁻¹ cm⁻¹; the “λabs, max” value is 520 nm; the “λem, max” value is listed as 533 nm. Moreover, the “Φfl (fluorescence quantum yield)” value in data set [1] (setting [3]) was determined as 0.55. Further, in data set [2], the pKa is on record as 3.8 and the “pH-dependency of fluorescence intensity (fluorescence quantum yield)” value (shortened to “pH-dependency of fluorescence intensity”) is “pH-dependency following the Henderson-Hasselbach equation”.
For `CC1=C(CCC(=O)O)C(C)=[N+]2C1=C(c1ccc(N(C)C)cc1)c1c(C)c(CCC(=O)O)c(C)n1[B-]2(F)F` [Compound 3b, 1,3,5,7-Tetramethyl-2,6-bis-(2-carboxyethyl)-8-[4-(N,N-dimethylamino)phenyl]-4,4-difluoro-4-bora-3a,4a-diaza-s-indacene], in data set [1] (N-nonprotonated form, pH 9.00), the “Stokes' shift” value was found to be 16 nm; the ε is 62300 M⁻¹ cm⁻¹; the “λabs, max” value is given as 519 nm; the “λem, max” value is given as 535 nm. Further, the “Φfl (fluorescence quantum yield)” value in data set [1] (N-nonprotonated form, pH 9.00) was 0.002. In data set [1] (setting [3]), the “Stokes' shift” value is 14 nm; the ε is 58900 M⁻¹ cm⁻¹; the “λabs, max” value was found to be 521 nm; the “λem, max” value came out at 535 nm. Further, the “Φfl (fluorescence quantum yield)” value in data set [1] (setting [3]) was 0.56. In addition, in data set [2], the pKa is listed as 4.3 and the “pH-dependency of fluorescence intensity” value was “pH-dependency following the Henderson-Hasselbach equation”.
For the compound `CCN(CC)c1ccc(C2=C3C(C)=C(CCC(=O)O)C(C)=[N+]3[B-](F)(F)n3c(C)c(CCC(=O)O)c(C)c32)cc1` [Compound 3c, 1,3,5,7-Tetramethyl-2,6-bis-(2-carboxyethyl)-8-[4-(N,N-diethylamino)phenyl]-4,4-difluoro-4-bora-3a,4a-diaza-s-indacene], in data set [1] (N-nonprotonated form, pH 9.00), the “Stokes' shift” value came out at 17 nm; the ε amounted to 64400 M⁻¹ cm⁻¹; the “λabs, max” value worked out at 519 nm; the “λem, max” value is reported as 536 nm. In addition, the “Φfl (fluorescence quantum yield)” value in data set [1] (N-nonprotonated form, pH 9.00) stood at 0.002. In data set [1] (setting [3]), the “Stokes' shift” value was found to be 13 nm; the ε turned out to be 64100 M⁻¹ cm⁻¹; the “λabs, max” value turned out to be 521 nm; the “λem, max” value is 534 nm. The “Φfl (fluorescence quantum yield)” value in data set [1] (setting [3]) was 0.56. For the same compound, in data set [2], the pKa is on record as 6.0 and the “pH-dependency of fluorescence intensity” value was “pH-dependency following the Henderson-Hasselbach equation”.
In the case of `CC1=C(CCC(=O)O)C(C)=[N+]2C1=C(c1ccccc1)c1c(C)c(CCC(=O)O)c(C)n1[B-]2(F)F` [Compound 3d, 1,3,5,7-Tetramethyl-2,6-bis-(2-carboxyethyl)-8-phenyl-4,4-difluoro-4-bora-3a,4a-diaza-s-indacene, reference compound], in data set [1] (setting [4]), the “Stokes' shift” value is reported as 14 nm; the ε is 73200 M⁻¹ cm⁻¹; the “λabs, max” value is 520 nm; the “λem, max” value was found to be 534 nm. For the same compound, in data set [1] (setting [4]), the “Φfl (fluorescence quantum yield)” value turned out to be 0.56.

The values are drawn from patent US8258171B2, “pH-sensitive fluorescent probe” (The University of Tokyo, priority 2006, dated 2012).
